Assay results taken from ChEMBL document CHEMBL4422631, “Investigation of stereoisomeric bisarylethenesulfonic acid esters for discovering potent and selective PTP1B inhibitors” (Eur J Med Chem, 2019).

Legend:
[1] = biological target: T1, Tyrosine-protein phosphatase non-receptor type 1 (Homo sapiens, UniProt P18031); test: Inhibition of PTP1B (unknown origin) using pNPP as substrate after 30 mins
T1 sequence (P18031 whole entry): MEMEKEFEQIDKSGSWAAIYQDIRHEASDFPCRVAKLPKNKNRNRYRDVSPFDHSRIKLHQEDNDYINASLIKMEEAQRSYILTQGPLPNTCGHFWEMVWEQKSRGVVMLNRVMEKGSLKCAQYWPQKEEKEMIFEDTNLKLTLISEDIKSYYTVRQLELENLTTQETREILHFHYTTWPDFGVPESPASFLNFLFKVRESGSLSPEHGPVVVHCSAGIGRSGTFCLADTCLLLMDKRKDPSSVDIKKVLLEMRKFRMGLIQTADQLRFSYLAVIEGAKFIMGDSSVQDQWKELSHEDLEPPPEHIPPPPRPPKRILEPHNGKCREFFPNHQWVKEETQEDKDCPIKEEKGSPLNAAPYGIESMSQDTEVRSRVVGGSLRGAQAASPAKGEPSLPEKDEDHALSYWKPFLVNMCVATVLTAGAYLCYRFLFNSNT

[2] = biological target: T2, Tyrosine-protein phosphatase non-receptor type 2 (Homo sapiens, UniProt P17706); test: Inhibition of TCPTP (unknown origin) using pNPP as substrate after 30 mins
T2 sequence (P17706 whole entry): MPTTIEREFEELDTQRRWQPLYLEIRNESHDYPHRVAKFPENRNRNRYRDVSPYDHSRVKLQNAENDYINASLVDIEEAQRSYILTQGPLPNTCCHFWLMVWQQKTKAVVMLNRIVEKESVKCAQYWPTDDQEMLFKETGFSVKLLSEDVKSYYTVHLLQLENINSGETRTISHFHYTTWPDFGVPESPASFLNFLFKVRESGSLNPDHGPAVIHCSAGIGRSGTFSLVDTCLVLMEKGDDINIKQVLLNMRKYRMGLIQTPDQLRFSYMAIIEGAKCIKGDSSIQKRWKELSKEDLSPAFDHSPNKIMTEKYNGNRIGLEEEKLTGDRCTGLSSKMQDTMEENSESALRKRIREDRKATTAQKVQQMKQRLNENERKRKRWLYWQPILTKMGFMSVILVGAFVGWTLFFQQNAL

[3] = biological target: T3, Tyrosine-protein phosphatase non-receptor type 11 (Homo sapiens, UniProt Q06124); test: Inhibition of SHP2 (unknown origin) using pNPP as substrate after 30 mins
T3 sequence (Q06124 whole entry): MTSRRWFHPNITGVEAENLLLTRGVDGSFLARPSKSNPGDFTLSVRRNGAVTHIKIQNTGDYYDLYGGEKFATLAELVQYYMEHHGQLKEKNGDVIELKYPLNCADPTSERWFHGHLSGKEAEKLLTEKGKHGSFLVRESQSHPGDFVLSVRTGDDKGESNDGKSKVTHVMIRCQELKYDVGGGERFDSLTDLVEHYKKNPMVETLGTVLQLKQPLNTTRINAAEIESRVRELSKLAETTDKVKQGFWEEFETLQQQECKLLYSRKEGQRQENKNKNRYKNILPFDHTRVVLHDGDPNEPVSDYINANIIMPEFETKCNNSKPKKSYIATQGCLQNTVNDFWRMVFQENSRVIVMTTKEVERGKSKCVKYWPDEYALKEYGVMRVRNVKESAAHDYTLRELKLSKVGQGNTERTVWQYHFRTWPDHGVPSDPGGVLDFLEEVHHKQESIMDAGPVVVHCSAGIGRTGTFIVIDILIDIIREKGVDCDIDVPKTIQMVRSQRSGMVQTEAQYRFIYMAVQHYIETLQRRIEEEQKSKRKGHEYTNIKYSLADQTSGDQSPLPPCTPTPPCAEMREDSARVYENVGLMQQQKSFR

[4] = Apparent permeability of compound at 10 uM at pH 7.4 after 12 hrs by PAMPA; type: ADME
[5] = biological target: T4, Tyrosine-protein phosphatase non-receptor type 1 (Homo sapiens) (UniProt P18031); test: Inhibition of PTP1B in human HepG2 cells assessed as increase in insulin stimulated glucose uptake at 5 uM preincubated for 24 hrs followed by insulin addition and measured after 10 mins by 2-NBDG dye-based FACS analysis relative to control; type: cell-based; set-up: scale not given: the % may be the effect or the level left
T4 sequence (whole entry): T1 sequence (P18031 whole entry)

[6] = biological target: T4, Tyrosine-protein phosphatase non-receptor type 1 (Homo sapiens); test: Inhibition of PTP1B in human HepG2 cells assessed as increase in insulin stimulated glucose uptake at 10 uM preincubated for 24 hrs followed by insulin addition and measured after 10 mins by 2-NBDG dye-based FACS analysis relative to control; type: cell-based; set-up: scale not given: the % may be the effect or the level left
[7] = biological target: T4, Tyrosine-protein phosphatase non-receptor type 1 (Homo sapiens); test: Inhibition of PTP1B in human HepG2 cells assessed as increase in insulin stimulated glucose uptake at 20 uM preincubated for 24 hrs followed by insulin addition and measured after 10 mins by 2-NBDG dye-based FACS analysis relative to control; type: cell-based; set-up: scale not given: the % may be the effect or the level left

SMILES | IC50 [1] [nM] | other results
CCOS(=O)(=O)/C=C/c1ccc(O[C@@H]2CN(C(=O)Nc3ccc(Oc4ccc(C(C)C)cc4)cc3)C[C@H]2Oc2ccc(/C=C/S(=O)(=O)OCC)cc2)cc1 | 1370 | –
CCOS(=O)(=O)/C=C/c1ccc(O[C@@H]2CN(C(=O)C(=O)Nc3ccc(Oc4ccc(Br)cc4)cc3)C[C@@H]2Oc2ccc(CCS(=O)(=O)OCC)cc2)cc1 | 1510 | –
CCOS(=O)(=O)/C=C/c1ccc(O[C@@H]2CN(C(=O)C(=O)Nc3ccc(Oc4ccc(F)cc4)cc3)C[C@H]2Oc2ccc(CCS(=O)(=O)OCC)cc2)cc1 | 460 | –
CCOS(=O)(=O)/C=C/c1ccc(O[C@@H]2CN(Cc3ccc(Oc4ccc(C(C)C)cc4)cc3)C[C@H]2Oc2ccc(/C=C/S(=O)(=O)OCC)cc2)cc1 | 6870 | –
CCOS(=O)(=O)/C=C/c1ccc(O[C@@H]2CN(C(=O)C(=O)Nc3ccc(Oc4ccc(C(C)(C)C)cc4)cc3)C[C@H]2Oc2ccc(CCS(=O)(=O)OCC)cc2)cc1 | 430 | –
CCOS(=O)(=O)/C=C/c1ccc(O[C@@H]2CN(C(=O)c3ccccc3)C[C@H]2Oc2ccc(/C=C/S(=O)(=O)OCC)cc2)cc1 | 7810 | –
CCOS(=O)(=O)/C=C/c1ccc(O[C@@H]2CN(C(=O)c3ccc(Oc4ccccc4)cc3)C[C@H]2Oc2ccc(/C=C/S(=O)(=O)OCC)cc2)cc1 | 2950 | –
CCOS(=O)(=O)/C=C/c1ccc(O[C@@H]2CN(C(=O)Nc3ccccc3)C[C@H]2Oc2ccc(/C=C/S(=O)(=O)OCC)cc2)cc1 | 3510 | –
CCOS(=O)(=O)/C=C/c1ccc(O[C@@H]2CN(C(=O)C(=O)Nc3ccc(Oc4ccc(Cl)cc4)cc3)C[C@@H]2Oc2ccc(CCS(=O)(=O)OCC)cc2)cc1 | 1450 | –
CCCCCCc1ccc(NC(=O)C(=O)N2C[C@@H](Oc3ccc(/C=C/S(=O)(=O)OCC)cc3)[C@H](Oc3ccc(CCS(=O)(=O)OCC)cc3)C2)cc1 | 610 | –
CCOS(=O)(=O)/C=C/c1ccc(O[C@@H]2CN(C(=O)C(=O)Nc3ccccc3)C[C@H]2Oc2ccc(/C=C/S(=O)(=O)OCC)cc2)cc1 | 2520 | IC50 [2]: 7840 nM; IC50 [3]: 5650 nM; Papp at 12 h, 10 µM [4]: 1.27 ×10⁻⁶ cm/s
CCOS(=O)(=O)/C=C/c1ccc(O[C@@H]2CN(C(=O)C(=O)Nc3ccc(Oc4ccccc4)cc3)C[C@@H]2Oc2ccc(CCS(=O)(=O)OCC)cc2)cc1 | 2790 | –
CCOS(=O)(=O)/C=C/c1ccc(O[C@@H]2CN(C(=O)C(=O)Nc3ccc(Oc4ccc5ccccc5c4)cc3)C[C@@H]2Oc2ccc(CCS(=O)(=O)OCC)cc2)cc1 | 1260 | –
CCOS(=O)(=O)/C=C/c1ccc(O[C@@H]2CN(C(=O)C(=O)Nc3ccc(Oc4ccc(Cl)cc4)cc3)C[C@H]2Oc2ccc(CCS(=O)(=O)OCC)cc2)cc1 | 380 | –
CCCCCCc1ccc(NC(=O)C(=O)N2C[C@H](Oc3ccc(CCS(=O)(=O)OCC)cc3)[C@H](Oc3ccc(/C=C/S(=O)(=O)OCC)cc3)C2)cc1 | 1540 | –
CCOS(=O)(=O)/C=C/c1ccc(O[C@@H]2CNC[C@H]2Oc2ccc(/C=C/S(=O)(=O)OCC)cc2)cc1 | 16800 | IC50 [2]: 29600 nM; IC50 [3]: 23500 nM; Papp at 12 h, 10 µM [4]: 0.93 ×10⁻⁶ cm/s
CCOS(=O)(=O)/C=C/c1ccc(O[C@H]2CNC[C@H]2Oc2ccc(/C=C/S(=O)(=O)OCC)cc2)cc1 | 27400 | IC50 [2]: 47800 nM; IC50 [3]: 55200 nM; Papp at 12 h, 10 µM [4]: 0.87 ×10⁻⁶ cm/s
CCOS(=O)(=O)/C=C/c1ccc(O[C@@H]2CN(C(=O)Nc3ccc(Oc4ccccc4)cc3)C[C@H]2Oc2ccc(/C=C/S(=O)(=O)OCC)cc2)cc1 | 1930 | –
CCOS(=O)(=O)/C=C/c1ccc(O[C@@H]2CN(Cc3ccc(Oc4ccccc4)cc3)C[C@H]2Oc2ccc(/C=C/S(=O)(=O)OCC)cc2)cc1 | 7420 | –
CCc1ccc(CCOc2ccc(CC3SC(=O)NC3=O)cc2)nc1 (stereo unspecified) | – | Activity [5]: 51.1%; Activity [6]: 70.2%; Activity [7]: 78.9%
CCOS(=O)(=O)/C=C/c1ccc(O[C@@H]2CN(C(=O)C(=O)Nc3ccc(Oc4ccc(F)cc4)cc3)C[C@@H]2Oc2ccc(CCS(=O)(=O)OCC)cc2)cc1 | 1220 | –
CC(C)NCC(O)COc1cccc2ccccc12 (stereo unspecified) [PROPRANOLOL] | – | Papp at 12 h, 10 µM [4]: 8.71 ×10⁻⁶ cm/s
CCOS(=O)(=O)/C=C/c1ccc(O[C@@H]2CN(C(=O)C(=O)Nc3ccc(Oc4ccc(Br)cc4)cc3)C[C@H]2Oc2ccc(CCS(=O)(=O)OCC)cc2)cc1 | 440 | –
CCOS(=O)(=O)/C=C/c1ccc(O[C@@H]2CN(C(=O)c3ccc(Oc4ccc(C(C)C)cc4)cc3)C[C@H]2Oc2ccc(/C=C/S(=O)(=O)OCC)cc2)cc1 | 3360 | –
CCOS(=O)(=O)/C=C/c1ccc(O[C@@H]2CN(C(=O)C(=O)Nc3ccc(Oc4ccccc4)cc3)C[C@H]2Oc2ccc(/C=C/S(=O)(=O)OCC)cc2)cc1 | 1070 | –
CCOS(=O)(=O)/C=C/c1ccc(O[C@@H]2CN(C(=O)C(=O)Nc3ccc(Oc4ccc5ccccc5c4)cc3)C[C@H]2Oc2ccc(CCS(=O)(=O)OCC)cc2)cc1 | 360 | –
CCOS(=O)(=O)/C=C/c1ccc(O[C@@H]2CN(C(=O)C(=O)Nc3ccc(Oc4ccc(C(C)(C)C)cc4)cc3)C[C@@H]2Oc2ccc(CCS(=O)(=O)OCC)cc2)cc1 | 1170 | –
CCOS(=O)(=O)/C=C/c1ccc(O[C@@H]2CN(Cc3ccccc3)C[C@H]2Oc2ccc(/C=C/S(=O)(=O)OCC)cc2)cc1 | 9340 | –
CCOS(=O)(=O)/C=C/c1ccc(O[C@@H]2CN(C(=O)C(=O)Nc3ccc(Oc4ccc(C(C)C)cc4)cc3)C[C@@H]2Oc2ccc(CCS(=O)(=O)OCC)cc2)cc1 | 1390 | –
CCOS(=O)(=O)/C=C/c1ccc(O[C@@H]2CN(C(=O)C(=O)Nc3ccc(Oc4ccc(C(C)C)cc4)cc3)C[C@H]2Oc2ccc(/C=C/S(=O)(=O)OCC)cc2)cc1 | 420 | –
